Test results reported in patent US20020111274A1, “1-alkyl-3-[1-(substituted phenyl) benzotriazol-6-yl] uracils” (BASF Aktiengesellschaft, priority 2000, published 2002).

Key:
Parameters in all cases: scale not given here
GLXMAW Soybean, Williams [1] = test: Preemergence herbicidal evaluation, GLXMAW; format: in vivo, Glycine max, (L.) Merr. cv Williams; settings: preemergence
Summary of the method: (§1)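 Preemergence soil spray: aqueous acetone, ~0.013–0.800 kg/ha, applied right after sowing (seed/potting-soil mix over ~1 in soil). Greenhouse, routine watering. Scored 4–5 wk post-treatment on a rating scale.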

ORYSAT Rice, Tebonnet [2] = test: Preemergence herbicidal evaluation, ORYSAT; format: in vivo, Oryza sativa, (L.); settings: preemergence
Summary of the method: as §1

SETVI Foxtail, Green [3] = test: Preemergence herbicidal evaluation, SETVI; format: in vivo, Setaria viridis, (L.) Beau; settings: preemergence
Summary of the method: as §1

ZEAMX Corn, Field = test: Preemergence herbicidal evaluation, ZEAMX; format: in vivo, Zea mays, L. (Sammel-Bezeichnung); settings: preemergence
Summary of the method: as §1

CASOB Sicklepod [4] = test: Preemergence herbicidal evaluation, CASOB; format: in vivo, Cassia obtusifolia, L.; settings: preemergence
Summary of the method: as §1

[5] = system: TRZAWR Wheat, Winter, cv Riband; test: Preemergence herbicidal evaluation, TRZAWR; format: in vivo, Triticum aestivum; settings: preemergence
Summary of the method: as §1

[6] = system: CHEAL Lambsquarters, Common; test: Postemergence herbicidal evaluation, CHEAL; format: in vivo, Chenopodium album, L.; settings: postemergence spray, rated about two-three weeks after treatment
Summary of the method: (§2)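 Two-week-old seedlings sprayed postemergence with compound in 80/20 acetone/water plus 1.0% methylated seed oil, at about 0.006–0.400 kg/ha, through a nozzle at 40 psi. Plants kept under greenhouse conditions and visually rated about two–three weeks after treatment; ratings from repeat tests averaged.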

[7] = system: TRZAWR Wheat, Winter, cv Riband; test: Postemergence herbicidal evaluation, TRZAWR; format: in vivo, Triticum aestivum; settings: postemergence spray, rated about two-three weeks after treatment
Summary of the method: as §2

[8] = system: CHEAL Lambsquarters, Common; test: Preemergence herbicidal evaluation, CHEAL; format: in vivo, Chenopodium album, L.; settings: preemergence
Summary of the method: as §1

ECHOG Barnyardgrass [9] = test: Preemergence herbicidal evaluation, ECHOG; format: in vivo, Echinochloa crus-galli, (L.) Beau; settings: preemergence
Summary of the method: as §1

GLXMAW Soybean, Williams [10] = test: Postemergence herbicidal evaluation, GLXMAW; format: in vivo, Glycine max, (L.) Merr. cv Williams; settings: postemergence spray, rated about two-three weeks after treatment
Summary of the method: as §2

[11] = system: IPOHE Morningglory, Ivyleaf; test: Preemergence herbicidal evaluation, IPOHE; format: in vivo, Ipomoea hederacea, (L.) Jacq.; settings: preemergence
Summary of the method: as §1

ECHOG Barnyardgrass [12] = test: Postemergence herbicidal evaluation, ECHOG; format: in vivo, Echinochloa crus-galli, (L.) Beau; settings: postemergence spray, rated about two-three weeks after treatment
Summary of the method: as §2

SETVI Foxtail, Green [13] = test: Postemergence herbicidal evaluation, SETVI; format: in vivo, Setaria viridis, (L.) Beau; settings: postemergence spray, rated about two-three weeks after treatment
Summary of the method: as §2

ABUTH Velvetleaf [14] = test: Postemergence herbicidal evaluation, ABUTH; format: in vivo, Abutilon theophrasti, Medic.; settings: postemergence spray, rated about two-three weeks after treatment
Summary of the method: as §2

CASOB Sicklepod [15] = test: Postemergence herbicidal evaluation, CASOB; format: in vivo, Cassia obtusifolia, L.; settings: postemergence spray, rated about two-three weeks after treatment
Summary of the method: as §2

ORYSAT Rice, Tebonnet [16] = test: Postemergence herbicidal evaluation, ORYSAT; format: in vivo, Oryza sativa, (L.); settings: postemergence spray, rated about two-three weeks after treatment
Summary of the method: as §2

ABUTH Velvetleaf [17] = test: Preemergence herbicidal evaluation, ABUTH; format: in vivo, Abutilon theophrasti, Medic.; settings: preemergence
Summary of the method: as §1

GALAP Galium = test: Postemergence herbicidal evaluation, GALAP; format: in vivo, Galium aparine; settings: postemergence spray, rated about two-three weeks after treatment
Summary of the method: as §2

Cc1ccc(O)c(-n2nnc3cc(F)c(-n4c(=O)cc(C(F)(F)F)n(C)c4=O)cc32)c1 [Example 31, 3-[5-Fluoro-1-(2-Hydroxy-5-Methylphenyl)-1H-1,2,3-Benzotriazol-6-yl]-1-Methyl-6-(Trifluoromethyl)-2,4(1H,3H)-(Pyrimidinedione)]
GLXMAW herbicidal rating (GLXMAW Soybean, Williams [1]; rate 0.008 kg/ha): 0.0
GLXMAW herbicidal rating (GLXMAW Soybean, Williams [1]; rate 0.016 kg/ha): 0.0
GLXMAW herbicidal rating (GLXMAW Soybean, Williams [1]; rate 0.032 kg/ha): 0.0
GLXMAW herbicidal rating (GLXMAW Soybean, Williams [1]; rate 0.062 kg/ha): 0.0
GLXMAW herbicidal rating (GLXMAW Soybean, Williams [1]; rate 0.125 kg/ha): 0.0
ORYSAT herbicidal rating (ORYSAT Rice, Tebonnet [2]; rate 0.008 kg/ha): 0.0
ORYSAT herbicidal rating (ORYSAT Rice, Tebonnet [2]; rate 0.016 kg/ha): 0.0
ORYSAT herbicidal rating (ORYSAT Rice, Tebonnet [2]; rate 0.032 kg/ha): 0.0
ORYSAT herbicidal rating (ORYSAT Rice, Tebonnet [2]; rate 0.062 kg/ha): 0.0
ORYSAT herbicidal rating (ORYSAT Rice, Tebonnet [2]; rate 0.125 kg/ha): 0.0
SETVI herbicidal rating (SETVI Foxtail, Green [3]; rate 0.008 kg/ha): 0.0
SETVI herbicidal rating (SETVI Foxtail, Green [3]; rate 0.016 kg/ha): 0.0
SETVI herbicidal rating (SETVI Foxtail, Green [3]; rate 0.032 kg/ha): 0.0
SETVI herbicidal rating (SETVI Foxtail, Green [3]; rate 0.062 kg/ha): 0.0
SETVI herbicidal rating (SETVI Foxtail, Green [3]; rate 0.125 kg/ha): 0.0
ZEAMX herbicidal rating (ZEAMX Corn, Field; rate 0.008 kg/ha): 0.0
ZEAMX herbicidal rating (ZEAMX Corn, Field; rate 0.016 kg/ha): 0.0
ZEAMX herbicidal rating (ZEAMX Corn, Field; rate 0.032 kg/ha): 0.0
ZEAMX herbicidal rating (ZEAMX Corn, Field; rate 0.062 kg/ha): 0.0
ZEAMX herbicidal rating (ZEAMX Corn, Field; rate 0.125 kg/ha): 0.0
CASOB herbicidal rating (CASOB Sicklepod [4]; rate 0.008 kg/ha): 0.0
CASOB herbicidal rating (CASOB Sicklepod [4]; rate 0.016 kg/ha): 0.0
CASOB herbicidal rating (CASOB Sicklepod [4]; rate 0.032 kg/ha): 0.0
CASOB herbicidal rating (CASOB Sicklepod [4]; rate 0.062 kg/ha): 0.0
CASOB herbicidal rating (CASOB Sicklepod [4]; rate 0.125 kg/ha): 0.0
TRZAWR herbicidal rating ([5]; rate 0.008 kg/ha): 0.0
TRZAWR herbicidal rating ([5]; rate 0.016 kg/ha): 0.0
TRZAWR herbicidal rating ([5]; rate 0.032 kg/ha): 0.0
TRZAWR herbicidal rating ([5]; rate 0.062 kg/ha): 0.0
TRZAWR herbicidal rating ([5]; rate 0.125 kg/ha): 0.0
Postemergence herbicidal rating CHEAL ([6]; 0.008 kg/ha): 0.0
Postemergence herbicidal rating CHEAL ([6]; 0.016 kg/ha): 0.0
Postemergence herbicidal rating CHEAL ([6]; 0.032 kg/ha): 0.0
Postemergence herbicidal rating CHEAL ([6]; 0.062 kg/ha): 0.0
Postemergence herbicidal rating TRZAWR ([7]; 0.008 kg/ha): 2.0
Postemergence herbicidal rating TRZAWR ([7]; 0.016 kg/ha): 2.0
Postemergence herbicidal rating TRZAWR ([7]; 0.032 kg/ha): 3.0
Postemergence herbicidal rating TRZAWR ([7]; 0.062 kg/ha): 3.0
CHEAL herbicidal rating ([8]; rate 0.008 kg/ha): 0.0
CHEAL herbicidal rating ([8]; rate 0.016 kg/ha): 0.0
CHEAL herbicidal rating ([8]; rate 0.032 kg/ha): 0.0
CHEAL herbicidal rating ([8]; rate 0.062 kg/ha): 3.0
CHEAL herbicidal rating ([8]; rate 0.125 kg/ha): 9.0
ECHCG herbicidal rating (ECHOG Barnyardgrass [9]; rate 0.008 kg/ha): 0.0
ECHCG herbicidal rating (ECHOG Barnyardgrass [9]; rate 0.016 kg/ha): 0.0
ECHCG herbicidal rating (ECHOG Barnyardgrass [9]; rate 0.032 kg/ha): 0.0
ECHCG herbicidal rating (ECHOG Barnyardgrass [9]; rate 0.062 kg/ha): 0.0
ECHCG herbicidal rating (ECHOG Barnyardgrass [9]; rate 0.125 kg/ha): 0.0
Postemergence herbicidal rating GLXMAW (GLXMAW Soybean, Williams [10]; 0.008 kg/ha): 3.5
Postemergence herbicidal rating GLXMAW (GLXMAW Soybean, Williams [10]; 0.016 kg/ha): 3.5
Postemergence herbicidal rating GLXMAW (GLXMAW Soybean, Williams [10]; 0.032 kg/ha): 4.5
Postemergence herbicidal rating GLXMAW (GLXMAW Soybean, Williams [10]; 0.062 kg/ha): 5.0
IPOHE herbicidal rating ([11]; rate 0.008 kg/ha): 0.0
IPOHE herbicidal rating ([11]; rate 0.016 kg/ha): 0.0
IPOHE herbicidal rating ([11]; rate 0.032 kg/ha): 0.0
IPOHE herbicidal rating ([11]; rate 0.062 kg/ha): 0.0
IPOHE herbicidal rating ([11]; rate 0.125 kg/ha): 0.0
Postemergence herbicidal rating ECHCG (ECHOG Barnyardgrass [12]; 0.008 kg/ha): 0.0
Postemergence herbicidal rating ECHCG (ECHOG Barnyardgrass [12]; 0.016 kg/ha): 0.0
Postemergence herbicidal rating ECHCG (ECHOG Barnyardgrass [12]; 0.032 kg/ha): 0.0
Postemergence herbicidal rating ECHCG (ECHOG Barnyardgrass [12]; 0.062 kg/ha): 3.0
Postemergence herbicidal rating SETVI (SETVI Foxtail, Green [13]; 0.008 kg/ha): 0.0
Postemergence herbicidal rating SETVI (SETVI Foxtail, Green [13]; 0.016 kg/ha): 0.0
Postemergence herbicidal rating SETVI (SETVI Foxtail, Green [13]; 0.032 kg/ha): 0.0
Postemergence herbicidal rating SETVI (SETVI Foxtail, Green [13]; 0.062 kg/ha): 5.0
Postemergence herbicidal rating ABUTH (ABUTH Velvetleaf [14]; 0.008 kg/ha): 0.0
Postemergence herbicidal rating ABUTH (ABUTH Velvetleaf [14]; 0.016 kg/ha): 0.0
Postemergence herbicidal rating ABUTH (ABUTH Velvetleaf [14]; 0.032 kg/ha): 2.0
Postemergence herbicidal rating ABUTH (ABUTH Velvetleaf [14]; 0.062 kg/ha): 4.0
Postemergence herbicidal rating CASOB (CASOB Sicklepod [15]; 0.008 kg/ha): 0.0
Postemergence herbicidal rating CASOB (CASOB Sicklepod [15]; 0.016 kg/ha): 0.0
Postemergence herbicidal rating CASOB (CASOB Sicklepod [15]; 0.032 kg/ha): 0.0
Postemergence herbicidal rating CASOB (CASOB Sicklepod [15]; 0.062 kg/ha): 0.0
Postemergence herbicidal rating ORYSAT (ORYSAT Rice, Tebonnet [16]; 0.008 kg/ha): 1.0
Postemergence herbicidal rating ORYSAT (ORYSAT Rice, Tebonnet [16]; 0.016 kg/ha): 1.0
Postemergence herbicidal rating ORYSAT (ORYSAT Rice, Tebonnet [16]; 0.032 kg/ha): 1.5
Postemergence herbicidal rating ORYSAT (ORYSAT Rice, Tebonnet [16]; 0.062 kg/ha): 1.5
ABUTH herbicidal rating (ABUTH Velvetleaf [17]; rate 0.008 kg/ha): 0.0
ABUTH herbicidal rating (ABUTH Velvetleaf [17]; rate 0.016 kg/ha): 0.0
ABUTH herbicidal rating (ABUTH Velvetleaf [17]; rate 0.032 kg/ha): 0.0
ABUTH herbicidal rating (ABUTH Velvetleaf [17]; rate 0.062 kg/ha): 0.0
ABUTH herbicidal rating (ABUTH Velvetleaf [17]; rate 0.125 kg/ha): 3.0
Postemergence herbicidal rating GALAP (GALAP Galium; 0.008 kg/ha): 0.0
Postemergence herbicidal rating GALAP (GALAP Galium; 0.016 kg/ha): 0.0
Postemergence herbicidal rating GALAP (GALAP Galium; 0.032 kg/ha): 0.0
Postemergence herbicidal rating GALAP (GALAP Galium; 0.062 kg/ha): 0.0
